Source: ChEMBL document CHEMBL1154011, “Discovery and structural analysis of Eph receptor tyrosine kinase inhibitors” (Bioorg Med Chem Lett, 2009)
Activity calls are given as the source filed them. The rule behind the calls is not given here.

Key:
[1] = biological target: Ephrin type-A receptor 7 (Homo sapiens) (UniProt Q15375); test: Inhibition of EphA7 at 10 uM
[2] = biological target: T1, Ephrin type-A receptor 6 (Homo sapiens) (UniProt Q9UF33); test: Inhibition of EphA6 at 10 uM
T1 sequence (whole entry): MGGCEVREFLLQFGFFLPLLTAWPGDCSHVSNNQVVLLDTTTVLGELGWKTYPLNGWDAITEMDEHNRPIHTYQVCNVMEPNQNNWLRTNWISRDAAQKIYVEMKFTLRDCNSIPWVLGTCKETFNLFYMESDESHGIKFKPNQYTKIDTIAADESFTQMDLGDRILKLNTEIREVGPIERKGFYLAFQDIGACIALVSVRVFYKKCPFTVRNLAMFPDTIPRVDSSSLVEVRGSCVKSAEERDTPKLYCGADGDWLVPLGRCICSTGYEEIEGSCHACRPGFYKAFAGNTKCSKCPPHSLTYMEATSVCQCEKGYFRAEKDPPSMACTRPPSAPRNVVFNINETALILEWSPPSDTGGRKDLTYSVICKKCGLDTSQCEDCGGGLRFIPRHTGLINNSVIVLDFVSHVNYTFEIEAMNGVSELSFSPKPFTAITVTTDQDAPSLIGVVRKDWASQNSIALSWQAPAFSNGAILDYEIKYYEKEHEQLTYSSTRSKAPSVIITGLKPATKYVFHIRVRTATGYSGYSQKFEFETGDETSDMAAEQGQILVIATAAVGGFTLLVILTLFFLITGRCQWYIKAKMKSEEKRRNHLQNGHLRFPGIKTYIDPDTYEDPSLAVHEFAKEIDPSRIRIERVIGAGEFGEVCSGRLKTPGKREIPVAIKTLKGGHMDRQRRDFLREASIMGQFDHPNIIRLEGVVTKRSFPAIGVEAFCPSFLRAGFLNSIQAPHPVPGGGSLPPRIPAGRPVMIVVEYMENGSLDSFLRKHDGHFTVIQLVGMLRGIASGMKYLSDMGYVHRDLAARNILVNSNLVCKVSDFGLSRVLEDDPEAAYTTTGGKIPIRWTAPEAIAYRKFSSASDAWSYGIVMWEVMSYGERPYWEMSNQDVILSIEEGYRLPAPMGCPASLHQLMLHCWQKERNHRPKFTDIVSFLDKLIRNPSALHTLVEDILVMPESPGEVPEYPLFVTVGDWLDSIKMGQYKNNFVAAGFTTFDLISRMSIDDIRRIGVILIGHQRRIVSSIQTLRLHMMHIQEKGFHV

[3] = biological target: T2, Ephrin type-B receptor 1 (Homo sapiens) (UniProt P54762); test: Inhibition of EphB1 at 10 uM
T2 sequence (whole entry): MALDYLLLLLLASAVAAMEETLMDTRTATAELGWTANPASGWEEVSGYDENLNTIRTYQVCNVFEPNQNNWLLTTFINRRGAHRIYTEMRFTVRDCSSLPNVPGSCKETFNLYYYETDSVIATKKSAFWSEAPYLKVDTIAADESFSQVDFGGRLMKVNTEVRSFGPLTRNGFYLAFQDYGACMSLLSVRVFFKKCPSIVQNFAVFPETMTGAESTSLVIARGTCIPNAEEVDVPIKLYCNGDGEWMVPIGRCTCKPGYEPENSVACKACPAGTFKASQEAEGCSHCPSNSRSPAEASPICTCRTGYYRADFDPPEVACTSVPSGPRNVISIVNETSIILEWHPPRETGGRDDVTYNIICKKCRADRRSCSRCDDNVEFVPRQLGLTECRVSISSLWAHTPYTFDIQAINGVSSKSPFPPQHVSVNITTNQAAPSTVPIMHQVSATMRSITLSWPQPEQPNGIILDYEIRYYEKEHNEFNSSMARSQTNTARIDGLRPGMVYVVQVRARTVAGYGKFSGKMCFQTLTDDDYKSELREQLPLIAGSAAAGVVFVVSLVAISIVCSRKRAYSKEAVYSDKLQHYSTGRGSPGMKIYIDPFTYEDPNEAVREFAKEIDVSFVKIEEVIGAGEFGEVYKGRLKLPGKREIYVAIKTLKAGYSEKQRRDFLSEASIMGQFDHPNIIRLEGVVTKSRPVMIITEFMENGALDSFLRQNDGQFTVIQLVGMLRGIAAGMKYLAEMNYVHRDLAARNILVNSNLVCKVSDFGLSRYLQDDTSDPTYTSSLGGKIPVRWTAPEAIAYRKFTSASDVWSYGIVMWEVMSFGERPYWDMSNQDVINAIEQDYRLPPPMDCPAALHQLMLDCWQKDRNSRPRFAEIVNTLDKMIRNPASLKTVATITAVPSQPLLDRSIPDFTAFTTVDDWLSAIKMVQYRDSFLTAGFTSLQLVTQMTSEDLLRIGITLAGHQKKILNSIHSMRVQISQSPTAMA

[4] = biological target: Serine/threonine-protein kinase B-raf (Homo sapiens) (UniProt P15056); test: Inhibition of Tel fused b-Raf expressed in mouse BA/F3 cells; format: cell-based; conditions: BaF3
Sequence of Serine/threonine-protein kinase B-raf (Homo sapiens) (P15056 whole entry, the tested form may be a part): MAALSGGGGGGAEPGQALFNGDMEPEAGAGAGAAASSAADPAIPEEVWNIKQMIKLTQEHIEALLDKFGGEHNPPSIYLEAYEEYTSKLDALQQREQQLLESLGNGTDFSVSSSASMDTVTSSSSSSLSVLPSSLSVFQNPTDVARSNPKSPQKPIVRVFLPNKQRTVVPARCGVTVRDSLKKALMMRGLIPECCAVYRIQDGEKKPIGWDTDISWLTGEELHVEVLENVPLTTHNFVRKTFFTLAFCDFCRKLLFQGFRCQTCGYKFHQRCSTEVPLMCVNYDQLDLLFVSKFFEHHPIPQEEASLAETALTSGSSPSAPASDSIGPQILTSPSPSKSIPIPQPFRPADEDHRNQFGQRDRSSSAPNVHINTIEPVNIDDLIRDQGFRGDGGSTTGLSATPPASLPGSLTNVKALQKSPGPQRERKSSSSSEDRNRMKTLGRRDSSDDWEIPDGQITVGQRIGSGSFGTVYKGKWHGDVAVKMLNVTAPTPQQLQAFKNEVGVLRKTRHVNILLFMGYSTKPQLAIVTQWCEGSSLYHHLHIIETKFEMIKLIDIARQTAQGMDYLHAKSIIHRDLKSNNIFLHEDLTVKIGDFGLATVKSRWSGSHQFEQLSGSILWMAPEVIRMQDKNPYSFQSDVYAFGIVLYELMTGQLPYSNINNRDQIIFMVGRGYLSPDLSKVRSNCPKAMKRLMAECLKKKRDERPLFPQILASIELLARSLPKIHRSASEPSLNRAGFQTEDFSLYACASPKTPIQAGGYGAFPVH

[5] = biological target: Ephrin type-B receptor 2 (Homo sapiens) (UniProt P29323); test: Inhibition of EphB2 at 10 uM
[6] = biological target: Tyrosine-protein kinase FRK (Homo sapiens) (UniProt P42685); test: Inhibition of Frk at 10 uM
[7] = biological target: Platelet-derived growth factor receptor alpha (Homo sapiens) (UniProt P16234); test: Inhibition of PDGFRalpha at 10 uM
[8] = biological target: Platelet-derived growth factor receptor beta (Homo sapiens) (UniProt P09619); test: Inhibition of PDGFRbeta at 10 uM
[9] = biological target: Mitogen-activated protein kinase 14 (Homo sapiens) (UniProt Q16539); test: Inhibition of p38alpha at 10 uM
[10] = biological target: Epithelial discoidin domain-containing receptor 1 (Homo sapiens) (UniProt Q08345); test: Inhibition of DDR1 at 10 uM
Sequence of Epithelial discoidin domain-containing receptor 1 (Homo sapiens) (Q08345 whole entry, the tested form may be a part): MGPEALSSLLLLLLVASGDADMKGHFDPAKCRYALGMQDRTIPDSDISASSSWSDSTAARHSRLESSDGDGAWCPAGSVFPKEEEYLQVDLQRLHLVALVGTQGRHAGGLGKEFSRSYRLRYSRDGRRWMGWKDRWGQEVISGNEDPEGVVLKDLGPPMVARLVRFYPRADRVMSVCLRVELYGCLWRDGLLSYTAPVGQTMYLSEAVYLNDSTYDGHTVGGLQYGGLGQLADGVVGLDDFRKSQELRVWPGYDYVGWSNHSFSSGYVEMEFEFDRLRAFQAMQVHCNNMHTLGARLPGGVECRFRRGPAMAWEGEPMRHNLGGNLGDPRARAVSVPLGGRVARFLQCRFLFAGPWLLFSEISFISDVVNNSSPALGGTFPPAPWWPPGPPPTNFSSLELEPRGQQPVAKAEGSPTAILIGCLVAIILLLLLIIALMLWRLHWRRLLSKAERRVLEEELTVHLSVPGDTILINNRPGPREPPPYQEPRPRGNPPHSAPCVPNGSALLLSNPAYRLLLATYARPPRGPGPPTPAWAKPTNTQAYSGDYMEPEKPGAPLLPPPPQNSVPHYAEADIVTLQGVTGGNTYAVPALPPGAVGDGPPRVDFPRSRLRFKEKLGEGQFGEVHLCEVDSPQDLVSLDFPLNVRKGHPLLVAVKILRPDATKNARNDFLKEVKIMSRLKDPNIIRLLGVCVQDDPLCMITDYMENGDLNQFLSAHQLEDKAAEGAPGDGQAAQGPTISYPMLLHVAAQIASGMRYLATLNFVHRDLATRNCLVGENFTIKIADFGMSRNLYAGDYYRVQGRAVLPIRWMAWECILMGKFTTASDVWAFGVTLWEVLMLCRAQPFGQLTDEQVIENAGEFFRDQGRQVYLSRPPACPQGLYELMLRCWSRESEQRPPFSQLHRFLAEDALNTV

[11] = biological target: Ephrin type-A receptor 5 (Homo sapiens) (UniProt P54756); test: Inhibition of EphA5 at 10 uM
[12] = biological target: Tyrosine-protein kinase Lck (Homo sapiens) (UniProt P06239); test: Inhibition of Lck at 10 uM
[13] = biological target: Bcr/Abl fusion protein (Homo sapiens) (UniProt P00519+P11274); test: Inhibition of Bcr-Abl expressed in mouse BA/F3 cells; format: cell-based; conditions: BaF3
[14] = biological target: Mast/stem cell growth factor receptor Kit (Homo sapiens) (UniProt P10721); test: Inhibition of Kit at 10 uM
Sequence of Mast/stem cell growth factor receptor Kit (Homo sapiens) (P10721 whole entry): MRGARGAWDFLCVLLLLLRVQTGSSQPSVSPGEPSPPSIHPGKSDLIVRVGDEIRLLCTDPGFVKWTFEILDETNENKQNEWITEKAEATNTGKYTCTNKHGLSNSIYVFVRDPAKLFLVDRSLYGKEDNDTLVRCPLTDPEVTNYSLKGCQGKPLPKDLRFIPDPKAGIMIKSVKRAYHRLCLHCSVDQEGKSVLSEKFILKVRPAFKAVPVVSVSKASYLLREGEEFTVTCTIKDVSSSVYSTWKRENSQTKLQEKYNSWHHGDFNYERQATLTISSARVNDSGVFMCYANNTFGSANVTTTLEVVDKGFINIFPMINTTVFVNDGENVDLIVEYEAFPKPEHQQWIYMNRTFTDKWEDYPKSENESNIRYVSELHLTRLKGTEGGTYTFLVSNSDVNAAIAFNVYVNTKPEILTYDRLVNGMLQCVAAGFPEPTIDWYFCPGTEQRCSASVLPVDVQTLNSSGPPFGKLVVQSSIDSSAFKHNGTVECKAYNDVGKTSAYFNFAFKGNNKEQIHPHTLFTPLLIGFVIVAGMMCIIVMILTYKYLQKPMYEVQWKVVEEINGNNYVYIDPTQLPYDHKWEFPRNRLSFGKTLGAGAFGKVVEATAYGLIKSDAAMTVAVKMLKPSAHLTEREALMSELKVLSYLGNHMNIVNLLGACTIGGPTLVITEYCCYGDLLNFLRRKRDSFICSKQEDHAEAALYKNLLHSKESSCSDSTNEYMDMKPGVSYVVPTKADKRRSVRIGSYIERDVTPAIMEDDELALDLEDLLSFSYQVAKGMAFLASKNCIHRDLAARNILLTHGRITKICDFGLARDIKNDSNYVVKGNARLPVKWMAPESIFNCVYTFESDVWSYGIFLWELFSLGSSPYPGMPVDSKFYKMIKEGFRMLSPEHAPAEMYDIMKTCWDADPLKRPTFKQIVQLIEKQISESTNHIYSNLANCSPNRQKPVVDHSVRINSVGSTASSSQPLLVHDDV

[15] = biological target: Tyrosine-protein kinase ABL1 (Homo sapiens) (UniProt P00519); test: Inhibition of Abl expressed in mouse BA/F3 cells; format: cell-based; conditions: BaF3
Sequence of Tyrosine-protein kinase ABL1 (Homo sapiens) (P00519 whole entry): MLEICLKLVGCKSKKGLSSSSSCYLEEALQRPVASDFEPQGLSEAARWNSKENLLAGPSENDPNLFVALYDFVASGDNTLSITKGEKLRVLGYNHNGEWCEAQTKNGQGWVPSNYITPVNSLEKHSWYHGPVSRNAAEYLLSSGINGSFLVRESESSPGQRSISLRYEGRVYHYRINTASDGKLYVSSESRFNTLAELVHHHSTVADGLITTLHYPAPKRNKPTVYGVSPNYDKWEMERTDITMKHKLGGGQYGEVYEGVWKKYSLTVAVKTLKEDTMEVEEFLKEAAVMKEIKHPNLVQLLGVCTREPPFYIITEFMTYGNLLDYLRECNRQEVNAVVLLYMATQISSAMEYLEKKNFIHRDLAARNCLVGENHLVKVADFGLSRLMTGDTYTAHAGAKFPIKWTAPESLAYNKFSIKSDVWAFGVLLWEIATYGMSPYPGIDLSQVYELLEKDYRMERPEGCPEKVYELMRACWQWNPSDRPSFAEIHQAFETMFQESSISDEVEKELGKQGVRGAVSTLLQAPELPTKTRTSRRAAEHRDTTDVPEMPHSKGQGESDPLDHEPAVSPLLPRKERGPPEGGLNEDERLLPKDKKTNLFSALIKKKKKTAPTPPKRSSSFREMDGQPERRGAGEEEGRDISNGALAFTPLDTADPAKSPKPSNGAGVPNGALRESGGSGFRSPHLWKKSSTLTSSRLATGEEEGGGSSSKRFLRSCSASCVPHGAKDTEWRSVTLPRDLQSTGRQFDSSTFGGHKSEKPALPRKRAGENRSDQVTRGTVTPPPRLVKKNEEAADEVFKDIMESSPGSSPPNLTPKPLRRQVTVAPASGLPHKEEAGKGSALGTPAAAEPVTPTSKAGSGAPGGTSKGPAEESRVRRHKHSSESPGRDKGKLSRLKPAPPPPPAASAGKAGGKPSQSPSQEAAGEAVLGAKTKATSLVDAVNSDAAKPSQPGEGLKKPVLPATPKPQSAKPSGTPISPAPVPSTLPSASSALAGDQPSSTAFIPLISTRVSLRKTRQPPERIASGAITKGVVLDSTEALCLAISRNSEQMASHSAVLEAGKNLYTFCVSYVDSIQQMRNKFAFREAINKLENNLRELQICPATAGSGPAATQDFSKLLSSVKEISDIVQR

[16] = biological target: Serine/threonine-protein kinase B-raf (Homo sapiens) (UniProt P15056); test: Inhibition of b-Raf at 100 uM
[17] = biological target: Ephrin type-A receptor 2 (Homo sapiens) (UniProt P29317); test: Inhibition of EphA2 at 10 uM
[18] = biological target: Ephrin type-B receptor 3 (Homo sapiens) (UniProt P54753); test: Inhibition of EphB3 at 10 uM
[19] = biological target: RAF proto-oncogene serine/threonine-protein kinase (Homo sapiens) (UniProt P04049); test: Inhibition of RAF1 at 10 uM
[20] = biological target: Discoidin domain-containing receptor 2 (Homo sapiens) (UniProt Q16832); test: Inhibition of DDR2 at 10 uM
[21] = biological target: Mast/stem cell growth factor receptor Kit (Homo sapiens) (UniProt P10721); test: Inhibition of c-kit expressed in mouse BA/F3 cells; format: cell-based; conditions: BaF3
[22] = tested on: BaF3; test: Inhibition of PDGFR expressed in mouse BA/F3 cells; format: cell-based
[23] = biological target: Mitogen-activated protein kinase 11 (Homo sapiens) (UniProt Q15759); test: Inhibition of p38beta at 10 uM
[24] = biological target: Ephrin type-A receptor 8 (Homo sapiens) (UniProt P29322); test: Inhibition of EphA8 at 10 uM
[25] = biological target: Macrophage colony-stimulating factor 1 receptor (Homo sapiens) (UniProt P07333); test: Inhibition of CSF1R at 10 uM
[26] = biological target: Fibroblast growth factor receptor 2 (Homo sapiens) (UniProt P21802); test: Inhibition of FGFR2 expressed in mouse BA/F3 cells; format: cell-based; conditions: BaF3
[27] = biological target: Fibroblast growth factor receptor 4 (Homo sapiens) (UniProt P22455); test: Inhibition of FGFR4 expressed in mouse BA/F3 cells; format: cell-based; conditions: BaF3
[28] = biological target: Fibroblast growth factor receptor 3 (Homo sapiens) (UniProt P22607); test: Inhibition of FGFR3 expressed in mouse BA/F3 cells; format: cell-based; conditions: BaF3

Sequence of Ephrin type-A receptor 7 (Homo sapiens) (Q15375 28-998 limits assumed): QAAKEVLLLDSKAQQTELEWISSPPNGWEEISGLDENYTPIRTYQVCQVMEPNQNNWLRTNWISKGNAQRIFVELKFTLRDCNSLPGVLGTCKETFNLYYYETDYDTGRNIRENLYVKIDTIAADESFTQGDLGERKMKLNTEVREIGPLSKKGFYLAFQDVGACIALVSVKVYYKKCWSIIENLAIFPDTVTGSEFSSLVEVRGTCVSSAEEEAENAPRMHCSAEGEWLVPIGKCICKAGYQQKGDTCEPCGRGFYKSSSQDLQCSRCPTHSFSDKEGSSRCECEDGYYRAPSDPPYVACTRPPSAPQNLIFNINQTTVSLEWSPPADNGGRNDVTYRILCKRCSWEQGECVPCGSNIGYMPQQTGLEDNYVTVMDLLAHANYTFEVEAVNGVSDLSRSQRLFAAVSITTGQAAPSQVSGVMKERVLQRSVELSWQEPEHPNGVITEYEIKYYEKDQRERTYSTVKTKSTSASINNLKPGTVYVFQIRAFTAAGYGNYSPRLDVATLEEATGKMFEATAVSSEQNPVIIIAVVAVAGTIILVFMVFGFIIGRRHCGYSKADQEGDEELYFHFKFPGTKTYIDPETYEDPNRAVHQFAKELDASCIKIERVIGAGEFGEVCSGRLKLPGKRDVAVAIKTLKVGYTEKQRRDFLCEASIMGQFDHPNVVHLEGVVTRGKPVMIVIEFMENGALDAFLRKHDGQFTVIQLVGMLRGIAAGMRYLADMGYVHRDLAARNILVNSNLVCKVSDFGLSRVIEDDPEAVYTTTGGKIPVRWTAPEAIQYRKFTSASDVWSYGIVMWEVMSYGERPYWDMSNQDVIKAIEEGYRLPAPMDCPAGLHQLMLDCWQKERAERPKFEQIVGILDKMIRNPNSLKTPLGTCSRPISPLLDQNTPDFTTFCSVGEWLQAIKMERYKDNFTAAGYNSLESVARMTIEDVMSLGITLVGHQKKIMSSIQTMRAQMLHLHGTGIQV

SMILES | inhibition [1] | inhibition [2] | inhibition [3] | inhibition [4] | inhibition [13] | inhibition [15] | inhibition [21] | inhibition [22] | also measured
Cc1ccc(C(=O)Nc2cccc(C(F)(F)F)c2)cc1Nc1cncc(C(N)=O)c1 | inactive | inactive | inactive | inactive | – | – | – | – | –
CCN1CCN(Cc2ccc(NC(=O)c3ccc(C)c(NC(=O)c4cncc(-c5cccs5)c4)c3)cc2C(F)(F)F)CC1 | – | – | Active | – | Active | Active | Active | Active | inhibition [5]: Active; inhibition [6]: Active; inhibition [7]: Active; inhibition [8]: Active; inhibition [9]: Active; inhibition [10]: Active; inhibition [11]: Active; inhibition [12]: Active; inhibition [14]: Active; inhibition [16]: Active; inhibition [17]: Active; inhibition [18]: Active; inhibition [19]: Active; inhibition [20]: Active; inhibition [23]: Active; inhibition [24]: Active; inhibition [25]: Active
Cc1ccc(C(=O)Nc2cccc(C(F)(F)F)c2)cc1Nc1ccc2occc(=O)c2c1 | inactive | inactive | inactive | – | Active | Active | Active | Active | –
Cc1cn(-c2cc(NC(=O)c3ccc(C)c(NC(=O)c4ccno4)c3)cc(C(F)(F)F)c2)cn1 | inactive | inactive | inactive | inactive | – | – | – | – | –
Cc1ccc(C(=O)Nc2cccc(C(F)(F)F)c2)cc1Nc1[nH]cnc2ncnc1-2 | – | – | – | – | – | Active | Active | Active | inhibition [26]: Active; inhibition [27]: Active; inhibition [28]: Active
